# Laboratory results from patent publication US8044071B2, “Method for reducing side effects of CB2 receptor agonist therapy using a combination of a selective CB2 receptor agonist and a selective CB1 receptor antagonist” (Abbott Laboratories, priority 2007, dated 2011).
# Where two headings read alike, the source gives them in different places.
# Columns and labels:
# [1] = target: T1, human CB1 (Homo sapiens, UniProt P21554); experiment: CB1 radioligand binding assay ([3H]CP-55,940 competition)
# T1 construct: purchased Perkin Elmer; host or cells: HEK293 membranes
# Method: To determine the selectivity (Ki) of the compounds of the present application for CB2 receptors relative to CB1 receptors, radioligand binding assays are performed, which are described herein.
# For CB1 radioligand binding assay HEK293 human CB1 membranes were purchased from Perkin Elmer. Binding was initiated by the addition of membranes (8-12 μg per well) into wells (Scienceware 96-well DeepWell plate, VWR, West Chester, Pa.) containing [^3H]CP-55,940 (120 Ci/mmol, Perkin Elmer, Boston, Mass.) and a sufficient volume of assay buffer (50 mM Tris, 2.5 mM EDTA, 5 mM MgCl2, and 0.5 mg/mL fatty acid free BSA, pH 7.4) to bring the total volume to 250 μL. After incubation (30° C. for 90 minutes), binding was terminated by the addition of 300 μL per well of cold assay buffer and rapid vacuum filtration (FilterMate Cell Harvester, Perkin Elmer, Boston, Mass.) through a UniFilter-96 GF/C filter plate (Perkin Elmer, Boston, Mass.) (pre-soaked in 0.3% PEI at least 3 hours), followed by five washes with cold assay buffer. The bound activity was counted in the TopCount using Microscint-20 (both from Perkin Elmer, Boston, Mass.). Competition experiments were conducted with 1 nM [^3H]CP-55,940 and five concentrations (1 nM to 10 μM) of displacing ligands. The addition of 10 μM unlabeled CP-55,940 (Tocris, Ellisville, Mo.) was used to assess nonspecific binding.
# [2] = test system: hind limb grip force; experiment: Grip force behavior (hind limb); format: in vivo; conditions: rat, 30 μmol/kg i.p.
# Method: Adverse effects can be assessed by measurements of Grip Force (GF) Behavior. Measurements of hind limb grip force are conducted by recording the maximum compressive force exerted on the hind limb strain gauge setup, in a commercially available grip force measurement system (Columbus Instruments, Columbus, Ohio). During testing, animals are gently restrained by grasping around its rib cage and then allowed to grasp the wire mesh frame (10×12 cm^2) attached to the strain gauge. The experimenter then moves the animal in a rostral-to-caudal direction until the grip is broken. Each animal is sequentially tested twice at approximately 2-3 min interval to obtain a raw mean grip force (CFmax). This raw mean grip force data is in turn converted to a maximum hindlimb compressive force (CFmax) (gram force)/kg body weight for each animal. A group mean±S.E.M. for CFmax/kg body weight is calculated. A group of age-matched naïve animals are added to each experiment and the data obtained from the different dose groups for each compound—or compound combination—being tested are compared to the naïve group (assigned as being 100% normal). […]
# Using the grip force behavior assay, the effects of CB2 agonist B were evaluated after the administration of vehicle or the CB1 antagonist rimonabant. […]
# [3] = test system: mean arterial pressure; experiment: Mean arterial pressure in anesthetized rats; format: in vivo; conditions: anesthetized rat
# Method: Male Sprague-Dawley rats were anesthetized with the long acting barbiturate, Inactin. Catheters were placed in the femoral artery for measurement of MAP and HR. Additional catheters were placed in the femoral vein for compound administration and saline infusion to maintain hydration. Following a 30-minute control period, vehicle (PEG400), compound B (vehicle: PEG400; 2 ml/kg) or CB2 agonist B (vehicle: PEG400; 2 ml/kg) plus CB1 antagonist rimonabant (vehicle: PEG400; 1 ml/kg) was administered intravenously over a 30-minute infusion. When administered simultaneously, compound B and rimonabant were infused individually using separate syringes. The doses tested were 1.0 mg/kg for compound B and 3.2 mg/kg for rimonabant. Data is expressed as mean from 3 rats ±sem. […] These effects indicate that the reduction in blood pressure by CB2 agonist B results from its residual activation of the CB1 receptor.
# T1 sequence (P21554 whole entry): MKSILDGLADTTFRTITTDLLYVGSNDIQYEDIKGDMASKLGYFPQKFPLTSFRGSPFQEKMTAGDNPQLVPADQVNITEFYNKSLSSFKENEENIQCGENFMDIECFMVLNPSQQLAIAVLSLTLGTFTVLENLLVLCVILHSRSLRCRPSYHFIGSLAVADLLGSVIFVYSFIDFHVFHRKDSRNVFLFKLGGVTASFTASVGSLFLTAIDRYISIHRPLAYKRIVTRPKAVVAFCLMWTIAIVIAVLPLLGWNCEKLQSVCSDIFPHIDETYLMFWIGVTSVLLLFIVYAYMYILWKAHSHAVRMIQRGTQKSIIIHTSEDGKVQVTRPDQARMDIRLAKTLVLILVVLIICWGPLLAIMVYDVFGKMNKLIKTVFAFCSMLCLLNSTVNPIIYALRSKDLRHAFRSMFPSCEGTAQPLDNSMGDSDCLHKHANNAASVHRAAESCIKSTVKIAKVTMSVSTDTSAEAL
Compound,Ki [1],"Ki ([1]; HEK293 human CB1 membranes, 1 nM [3H]CP-55,940, read-out: Ki for CB1 receptors)","reduction of grip force, agonist after rimonabant ([2]; rimonabant 30 μmol/kg i.p. 15 min before)","reduction of grip force, agonist after vehicle ([2]; tested 30 min after second dose)","effect on mean arterial pressure (MAP), agonist with rimonabant ([3]; 1.0 mg/kg i.v. plus rimonabant 3.2 mg/kg i.v., 30-minute infusion)","effect on mean arterial pressure (MAP), agonist alone ([3]; 1.0 mg/kg intravenously over 30-minute infusion)"
"CCCCn1cc(C(C)(C)C)s/c1=N\C(=O)c1cc(Cl)ccc1OC [compound A, (Z)—N-(5-tert-butyl-3-butylthiazol-2(3H)-ylidene)-5-chloro-2-methoxybenzamide]",3670 nM,,,,,
"COCCn1c(C)c(C)s/c1=N\C(=O)C1C(C)(C)C1(C)C [compound B, (Z)—N-(3-(2-methoxyethyl)-4,5-dimethylthiazol-2(3H)-ylidene)-2,2,3,3-tetramethylcyclopropanecarboxamide]",,273 nM,completely blocked,42%,devoid of an effect on blood pressure relative to vehicle,has an effect to reduce blood pressure
